Patent publication US20040175817A1, “Crystallised catalytic domain of matrix metalloproteinase 9 (mmp9) and the use of its three dimensional structure to design mmp9 modulators” (priority 2001, published 2004)
“Also recorded” adds a separate entry of the source.

Target: T1, MMP9(107-216,391-443) (Homo sapiens, UniProt P14780, DEL217-390)
T1 construct: phenylalanine (107) and a stop codon was introduced, via the 3′ primer, after residue 443; made in house; host or cells: E. coli BL21(DE3)
T1 sequence (P14780 with tags, fused parts or gaps DEL217-390 limits assumed): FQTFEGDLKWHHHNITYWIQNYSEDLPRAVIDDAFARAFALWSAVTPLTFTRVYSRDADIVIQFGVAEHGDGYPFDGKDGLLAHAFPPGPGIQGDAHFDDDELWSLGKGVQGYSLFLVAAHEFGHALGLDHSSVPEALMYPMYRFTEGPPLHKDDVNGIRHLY
Test: Auto-proteolysis (autodegradation) of MMP9 catalytic domain during refolding, storage and crystallisation
Type: biochemical
Source text: Another major hurdle in the crystallisation and structure determination of MMP9 is that the MMP9 catalytic domain is aggressively autolytic. We therefore purified wild-type MMP9 in the presence of an inhibitor and then crystallised the purified complex. Addition of an inhibitor during the refolding step following urea denaturation is essential for prevention of N-terminal degradation and the formation of well-ordered crystals.
Following expression in E. coli, MMP9(107-216,391-443) is mainly located in the inclusion body fraction. The E. coli were harvested, washed and lysed and centrifuged to isolate the insoluble protein. The insoluble fraction was then suspended in 6M Urea to solubilise the protein. To generate active MMP9(107-216,391-443) the solubilised material was dialysed sequentially versus 4M, 1M and 0M Urea. […] Post dialysis, the protein was subjected to zinc chelate chromatography which selectively bound the MMP9 catalytic domain. A further chromatography step was then carried out using the tripeptide Pro-Leu-Gly bound to sepharose which bound correctly folded MMP9 catalytic domain. The protein was then eluted by addition of an MMP9 inhibitor. Expression and refolding of the [E402Q]MMP9(107-216,391-443) construct was carried out as for the wild type construct except that no acetohydroxamic acid was added to the refold buffers. […]

In the case of CC(=O)NO [acetohydroxamic acid], the “auto-proteolysis of the N-terminus / autodegradation of the wild type MMP9 protein during refolding” value (added to the refold buffers, wild type MMP9 catalytic domain) is reported as “prevent autodegradation; also recorded: inhibited auto-proteolysis of the N-terminus of the protein” and the “autodegradation of the wild type MMP9 protein during storage or during the period of crystallisation” value (storage or crystallisation period, wild type MMP9) is reported as “not sufficiently potent to prevent autodegradation”.
